Source: paper PMC3486708 (Journal of medicinal chemistry, 2012)

Assays:
[1] = tested on: MC65 cells; experiment: Toxicity to MC65 cells in the presence of tetracycline; type: cell-based; settings: median toxic concentration to MC65 cells, presence of TC
[2] = tested on: ABCA1; experiment: ABCA1 gene expression in Huh-7 cells; type: cell-based, human; settings: 24 h, compared to mock-treated cells
[3] = tested on: MC65 cells; experiment: MC65 cell protection assay; type: cell-based; settings: for protection of MC65 cell death (in words): MC65 cells, absence of TC

Cc1cc2c(c(=O)o1)C=C1CC[C@H](C(C)CNCc3ccc(O)c(F)c3)C[C@@H]1O2 (stereo partly shown) [Compound 3f]
TD50 [1]: >50 µM

Cc1cc2c(c(=O)o1)C=C1CC[C@H](C(C)Cn3cnc(N)c4ncnc3-4)C[C@@H]1O2 (stereo partly shown) [Compound 1]
expression of ABCA1 [2]: significantly increased
TD50 [1]: 39.0 ± 1.12 µM

CC(=O)Oc1ccccc1C(=O)NCC(C)[C@H]1CCC2=Cc3c(cc(C)oc3=O)O[C@H]2C1 (stereo partly shown) [Compound 6a]
protection of MC65 cell death (in words) [3]: inactive

Cc1cc2c(c(=O)o1)C=C1CC[C@H](C(C)CNCc3ccc(O)c4ccccc34)C[C@@H]1O2 (stereo partly shown) [Compound 4a]
expression of ABCA1 [2]: significantly increased
TD50 [1]: 13.7 ± 0.704 µM

Cc1cc2c(c(=O)o1)C=C1CC[C@H](C(C)CNCc3ccc(C#N)cc3)C[C@@H]1O2 (stereo partly shown) [Compound 2i]
protection of MC65 cell death (in words) [3]: abolishes the activity

CCCCCCCCCCC(C)(C)C(=O)Nc1c(OC)cc(OC)cc1OC [CI-976, reference compound]
expression of ABCA1 [2]: significantly increased
protection of MC65 cell death ([3]; up to 50 μM): inactive

Cc1cc2c(c(=O)o1)C=C1CC[C@H](C(C)CNC(=O)c3ccccc3O)C[C@@H]1O2 (stereo partly shown) [Compound 6b]
protection of MC65 cell death (in words) [3]: poor activity

Cc1cc2c(c(=O)o1)C=C1CC[C@H](C(C)CNCc3ccc(CO)cc3)C[C@@H]1O2 (stereo partly shown) [Compound 2e]
TD50 [1]: >50 µM

Cc1cc2c(c(=O)o1)C=C1CC[C@H](C(C)CNCc3ccc(O)cc3)C[C@@H]1O2 (mixture of isomers) [Compound 2b, (5aS,7S)-3-Methyl-7-[(1R) and (1S)1-(4-hydroxybenzylamino)propan-2-yl]-1H,7H-5a,6,8,9-tetrahydro-1-oxopyrano[4,3-b][1]benzopyran]
expression of ABCA1 [2]: significantly increased
TD50 [1]: 49.3 ± 0.127 µM
